pEC50: −log10 of the molar value.
Tests used:
TRα = molecular target: T1, TRα (Homo sapiens, UniProt P10827); assay: TR reporter-gene assay (Gal4 DBD hybrid, luciferase), TRα; format: cell-based; conditions: HEK293-derived reporter cells, 24 hr treatment; read-out: TRα EC50
T1 construct: expressed in transfected cells; host or cells: HEK293
T1 sequence (P10827 1-410 isoform P10827-2): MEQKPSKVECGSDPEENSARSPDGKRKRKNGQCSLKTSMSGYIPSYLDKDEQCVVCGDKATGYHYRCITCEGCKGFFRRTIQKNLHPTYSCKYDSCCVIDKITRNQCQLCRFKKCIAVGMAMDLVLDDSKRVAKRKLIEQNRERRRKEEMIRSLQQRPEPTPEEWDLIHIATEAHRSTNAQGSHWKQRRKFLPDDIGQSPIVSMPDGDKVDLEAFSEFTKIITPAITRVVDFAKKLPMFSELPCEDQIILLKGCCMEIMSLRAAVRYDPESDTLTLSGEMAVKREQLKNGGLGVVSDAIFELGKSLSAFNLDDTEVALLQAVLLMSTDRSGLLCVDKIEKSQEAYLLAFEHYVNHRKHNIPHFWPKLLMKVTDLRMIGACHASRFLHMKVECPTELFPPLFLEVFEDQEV
Experimental: (§1) Compounds were tested for thyroid-hormone receptor activity using TR reporter-gene assays. Reporter cells used in the assays express a TR-receptor hybrid (either TRα or TRβ) in which the native N-terminal DNA binding domain (DBD) has been replaced with that of the yeast Gal4 DBD. The reporter gene, firefly luciferase, is functionally linked to the Gal4 upstream activation sequence (UAS). Both cell lines were derived from human embryonic kidney (HEK293).
(§2) Step 1: A suspension of reporter cells was prepared in cell recovery medium containing 10% charcoal-stripped FBS, and dispensed into assay plates. The plates were pre-incubated for 6 hours in a cell culture incubator (37° C./5% CO2/85% humidity).
(§3) These intermediate stocks were subsequently diluted directly into compound screening medium containing 10% charcoal-stripped FBS to generate “2×-concentration” treatment media (containing 0.2, 0.4 or 0.8% DMSO).
(§4) Step 3: At the end of the pre-incubation period, culture media were discarded from the assay plates, and all wells received 100 μl of compound screening medium. 100 μl of each of the previously prepared “2×-concentration” treatment media were dispensed into duplicate assay wells, thereby achieving the desired final treatment concentrations. The final concentration of DMSO in all assay wells was 0.1, 0.2 or 0.4%. Assay plates were incubated for 24 hr in a cell culture incubator (37° C./5% CO2/85% humidity).
(§5) Step 4: At the 24 h assay endpoint, treatment media were discarded and 100 µl/well of luciferase detection reagent was added. Relative luminometer units (RLUs) were quantified from each assay well.

TRβ = molecular target: T2, TRβ (Homo sapiens, UniProt P10828); assay: TR reporter-gene assay (Gal4 DBD hybrid, luciferase), TRβ; format: cell-based; conditions: for pEC50: HEK293-derived reporter cells, 24 hr treatment, read-out: TRβ EC50; for T3-SI (selectivity index, EC50 (TRα)/EC50 (TRβ)): class symbols
T2 construct: expressed in transfected cells; host or cells: HEK293
T2 sequence (P10828 217-461 limits assumed): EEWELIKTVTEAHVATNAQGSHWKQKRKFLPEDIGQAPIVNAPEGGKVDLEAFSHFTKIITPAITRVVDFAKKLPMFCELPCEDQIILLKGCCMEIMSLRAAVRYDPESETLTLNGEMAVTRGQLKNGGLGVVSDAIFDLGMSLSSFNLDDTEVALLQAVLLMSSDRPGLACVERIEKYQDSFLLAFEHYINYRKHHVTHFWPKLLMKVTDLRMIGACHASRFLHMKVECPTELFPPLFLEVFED
Experimental: as §1, §2, §3, §4, §5

Structure (SMILES)	pEC50 (TRα)	pEC50 (TRβ)	T3-SI (selectivity index, EC50 (TRα)/EC50 (TRβ)) (TRβ)
CONC(=O)Cc1cc(Cl)c(Cc2ccc(O)c(C(C)C)c2F)c(Cl)c1 [Compound 104, 2-(3,5-dichloro-4-(2-fluoro-4-hydroxy-3-isopropylbenzyl)phenyl)-N-methoxyacetamide]	< 6.00	6.00 to 7.00	+++ (T3-SI > 30×)
CC(c1ccc(F)cc1)c1c(O)ccc(Cc2c(Cl)cc(CC(=O)O)cc2Cl)c1F (stereo not drawn) [Compound 37, 2-(3,5-dichloro-4-(2-fluoro-3-(1-(4-fluorophenyl)ethyl)-4-hydroxybenzyl)phenyl)acetic acid]	7.00 to 8.00	> 8.00	++ (3× < T3-SI ≤ 30×)
Cc1c(F)c(CNCC(=O)O)cc(Cl)c1Cc1ccc(O)c(C(C)C)c1 [Compound 221, (5-chloro-2-fluoro-4-(4-hydroxy-3-isopropylbenzyl)-3-methylbenzyl)glycine]	6.00 to 7.00	6.00 to 7.00	++ (3× < T3-SI ≤ 30×)
CC(C)c1cc(Cc2c(Cl)cc(C=C(C(=O)O)C(=O)O)cc2Cl)ccc1O [Compound 108, 2-(3,5-dichloro-4-(4-hydroxy-3-isopropylbenzyl)benzylidene)malonic acid]	6.00 to 7.00	< 6.00	+ (T3-SI ≤ 3×)
CC(C)c1cc(Cc2c(Cl)cc(OCCCCC(=O)O)cc2Cl)ccc1O [Compound 26, 5-(3,5-dichloro-4-(4-hydroxy-3-isopropylbenzyl)phenoxy)pentanoic acid]	6.00 to 7.00	6.00 to 7.00	+ (T3-SI ≤ 3×)
CC(C)c1cc(Cc2c(Cl)cc(/C=C\C(=O)O)cc2Cl)ccc1O [Compound 100, (Z)-3-(3,5-dichloro-4-(4-hydroxy-3-isopropylbenzyl)phenyl)acrylic acid]	6.00 to 7.00	< 6.00	+ (T3-SI ≤ 3×)
CC(C)c1c(O)ccc(Cc2c(Cl)cc(CCC(=O)O)cc2Cl)c1F [Compound 40, 3-(3,5-dichloro-4-(2-fluoro-4-hydroxy-3-isopropylbenzyl)phenyl)propanoic acid]	> 8.00	> 8.00	++ (3× < T3-SI ≤ 30×)
Cc1c(F)c(NCC(=O)O)cc(Cl)c1Cc1ccc(O)c(C(C)C)c1F [Compound 133, (5-chloro-2-fluoro-4-(2-fluoro-4-hydroxy-3-isopropylbenzyl)-3-methylphenyl)glycine]	> 8.00	> 8.00	++ (3× < T3-SI ≤ 30×)
CC(C)c1cc(Cc2c(Cl)cc(N(C)CC(=O)O)cc2Cl)ccc1O [Compound 148, N-(3,5-dichloro-4-(4-hydroxy-3-isopropylbenzyl)phenyl)-N-methylglycine]	< 6.00	< 6.00	+ (T3-SI ≤ 3×)
Cc1cc(SCC(=O)O)c(F)c(Cl)c1Cc1ccc(O)c(C(C)C)c1 [Compound 225, 2-((3-chloro-2-fluoro-4-(4-hydroxy-3-isopropylbenzyl)-5-methylphenyl)thio)acetic acid]	6.00 to 7.00	6.00 to 7.00	++ (3× < T3-SI ≤ 30×)
CNC(=O)C(F)(F)Oc1cc(Cl)c(Cc2ccc(O)c(C(C)C)c2)c(Cl)c1 [Compound 84, 2-(3,5-dichloro-4-(4-hydroxy-3-isopropylbenzyl)phenoxy)-2,2-difluoro-N-methylacetamide]	6.00 to 7.00	6.00 to 7.00	+ (T3-SI ≤ 3×)
Cc1cc(/C=C/C(=O)O)cc(Cl)c1Cc1ccc(O)c(C(C)C)c1F [Compound 250, (E)-3-(3-chloro-4-(2-fluoro-4-hydroxy-3-isopropylbenzyl)-5-methylphenyl)acrylic acid]	7.00 to 8.00	7.00 to 8.00	+ (T3-SI ≤ 3×)
CC(C)c1cc(Cc2c(Cl)cc(COCC(=O)O)cc2Cl)ccc1O [Compound 28, 2-((3,5-dichloro-4-(4-hydroxy-3-isopropylbenzyl)benzyl)oxy)acetic acid]	7.00 to 8.00	7.00 to 8.00	++ (3× < T3-SI ≤ 30×)
Cc1cc(NCC(=O)O)cc(Cl)c1Cc1ccc(O)c(C(C)C)c1F [Compound 247, (3-chloro-4-(2-fluoro-4-hydroxy-3-isopropylbenzyl)-5-methylphenyl)glycine]	7.00 to 8.00	7.00 to 8.00	++ (3× < T3-SI ≤ 30×)
CC(C)c1cc(Cc2c(Cl)cc(NCC(=O)O)c(F)c2Cl)ccc1O [Compound 75, (3,5-dichloro-2-fluoro-4-(4-hydroxy-3-isopropylbenzyl)phenyl)glycine]	7.00 to 8.00	7.00 to 8.00	++ (3× < T3-SI ≤ 30×)
CC(C)c1cc(Cc2c(Cl)cc(CCC(=O)O)cc2Cl)ccc1O [Compound 11, 3-(3,5-dichloro-4-(4-hydroxy-3-isopropylbenzyl)phenyl)propanoic acid]	7.00 to 8.00	7.00 to 8.00	++ (3× < T3-SI ≤ 30×)
CC(C)c1cc(Cc2c(Cl)cc(CCC(=O)O)c(F)c2Cl)ccc1O [Compound 65, 3-(3,5-dichloro-2-fluoro-4-(4-hydroxy-3-isopropylbenzyl)phenyl)propanoic acid]	7.00 to 8.00	7.00 to 8.00	++ (3× < T3-SI ≤ 30×)
Cc1cc(CSCC(=O)O)c(F)c(Cl)c1Cc1ccc(O)c(C(C)C)c1 [Compound 224, 2-((3-chloro-2-fluoro-4-(4-hydroxy-3-isopropylbenzyl)-5-methylbenzyl)thio)acetic acid]	6.00 to 7.00	6.00 to 7.00	++ (3× < T3-SI ≤ 30×)
C/C(=C\c1cc(C)c(Cc2ccc(O)c(C(C)C)c2F)c(Cl)c1)C(=O)O [Compound 248, (E)-3-(3-chloro-4-(2-fluoro-4-hydroxy-3-isopropylbenzyl)-5-methylphenyl)-2-methylacrylic acid]	7.00 to 8.00	7.00 to 8.00	+ (T3-SI ≤ 3×)
CC(C)c1cc(Cc2c(Cl)cc(NC(=O)CC(=O)O)cc2Cl)ccc1O [Compound 22, 3-((3,5-dichloro-4-(4-hydroxy-3-isopropylbenzyl)phenyl)amino)-3-oxopropanoic acid]	6.00 to 7.00	6.00 to 7.00	++ (3× < T3-SI ≤ 30×)
CC(C)c1cc(Cc2c(Cl)cc(C[S+]([O-])CC(=O)O)cc2Cl)ccc1O (stereo not drawn) [Compound 210, 2-((3,5-dichloro-4-(4-hydroxy-3-isopropylbenzyl)benzyl)sulfinyl)acetic acid]	< 6.00	< 6.00	++ (3× < T3-SI ≤ 30×)
CC(C)c1c(O)ccc(Cc2c(Cl)cc(CSCC(=O)O)cc2Cl)c1F [Compound 200, 2-((3,5-dichloro-4-(2-fluoro-4-hydroxy-3-isopropylbenzyl)benzyl)thio)acetic acid]	> 8.00	> 8.00	++ (3× < T3-SI ≤ 30×)
CC(C)c1c(O)ccc(Cc2c(Cl)cc(NCC(=O)O)cc2Cl)c1F [Compound 46, (3,5-dichloro-4-(2-fluoro-4-hydroxy-3-isopropylbenzyl)phenyl)glycine]	7.00 to 8.00	> 8.00	++ (3× < T3-SI ≤ 30×)
CC(C)c1cc(Cc2c(Cl)cc(CS(=O)(=O)CC(=O)O)cc2Cl)ccc1O [Compound 97, 2-((3,5-dichloro-4-(4-hydroxy-3-isopropylbenzyl)benzyl)sulfonyl)acetic acid]	< 6.00	< 6.00	++ (3× < T3-SI ≤ 30×)
CON(C)C(=O)CCc1cc(Cl)c(Cc2ccc(O)c(C(C)C)c2F)c(Cl)c1 [Compound 107, 3-(3,5-dichloro-4-(2-fluoro-4-hydroxy-3-isopropylbenzyl)phenyl)-N-methoxy-N-methylpropanamide]	6.00 to 7.00	6.00 to 7.00	++ (3× < T3-SI ≤ 30×)

From patent US12528761B2, “Thyromimetics” (Autobahn Therapeutics, Inc., priority 2020, dated 2026)
